The values that follow are results of earlier work, collected in patent publication US20090306081A1, “Solid Dosage Formulations of Hydralazine Compounds and Nitric Oxide Donor Compounds” (priority 2006, published 2009).

SMILES strings stand for the structures.

With `O=[N+]([O-])O[C@H]1CO[C@H]2[C@@H]1OC[C@H]2O[N+](=O)[O-]` [Diluted isosorbide dinitrate, 1,4,3,6-dianhydro-D-glucitol-2,5-dinitrate], the “solubility in organic solvents” value (organic solvents such as ethanol, ether and chloroform) is “freely soluble”. For the same compound, the solubility in water entry (water) is “sparingly soluble”.
